# Laboratory results published in patent publication US20070270521A1, “Transition metal compound, polymerization-initiator system comprising the same, and process for producing polymer” (Sumitomo Chemical Company, Limited, priority 2006, published 2007).
# Legend:
# Type in all cases: physicochemical
# [1] = Saturated solubility of the transition metal compound in a solvent at 23° C.; conditions: amount dissolved in 10 mL of saturated solution (Note-1)
# [2] = Color change of the reaction mixture before and after polymerization (stability during polymerization); conditions: methyl acrylate/ethylene copolymerization in toluene, 150° C., 4 MPa
# Procedure: A 400 mL stainless-steel autoclave was dried sufficiently, and a gas in the autoclave was displaced with a nitrogen gas. There was put in the autoclave, at ordinary temperature and atmospheric pressure, 1.61 g of [dodecyl(tetramethyl)cyclopentadienyl]iron carbonyl dimer (transition metal compound) obtained in Reference Example 2, and then, 18 mL of methyl acrylate manufactured by Tokyo Chemical Industry Co., Ltd. and 18 mL of purified toluene as a polymerization solvent were put therein using a syringe. After heating the mixture up to 150° C., ethylene (olefin) was pressed into the autoclave up to its pressure of 4.0 MPa. Finally, 2.0 mL of a toluene solution of 2-iodobutane (manufactured by Tokyo Chemical Industry Co., Ltd.) having a concentration of 1.0 mol/L was put therein, thereby copolymerizing methyl acrylate and ethylene at 150° C. for 10 minutes. The copolymerization reaction mixture was subjected to distillation under reduced pressure to distil away the remaining monomer (methyl acrylate) and the solvent (toluene). The resultant solid was dried for three hours in a vacuum dryer (80° C.), thereby obtaining 8.7 g of a random copolymer of methyl acrylate and ethylene. Both the original mixture before copolymerization and the copolymerization reaction mixture were red. […]
# [3] = Polymer dipped in heptane (transfer of the transition metal compound to heptane); conditions: poly(butyl acrylate) made at 60° C. in toluene, containing the transition metal compound
# Source text: Its molecular weight distribution (Mw/Mn) of 3.2 was a single peak distribution. When dipping said polymer in heptane, the transition metal compound contained in said polymer was transferred to heptane, and said polymer was decolorized from red to very pale yellow.
# Its molecular weight distribution (Mw/Mn) of 3.9 was a single peak distribution. When dipping said polymer in heptane, the transition metal compound contained in said polymer was hardly transferred to heptane, and said polymer remained red and was not decolorized.
Saturated solubility ([1]; hexane) [mmol],Saturated solubility ([1]; toluene) [mmol],Color change of the reaction mixture before and after polymerization [2],Polymer dipped in heptane [3],Compound
0.8,19.3,–,–,Cc1c(C)c(C)[c-](C)c1C.Cc1c(C)c(C)[c-](C)c1C.[C-]#[O+].[C-]#[O+].[C-]#[O+].[C-]#[O+].[Fe+][Fe+] [[(pentamethyl)cyclopentadienyl]iron carbonyl dimer]
2.4,167.3,–,–,(cyclopentadienyl)iron carbonyl dimer
131.4,–,non-changed,decolorized,[dodecyl(tetramethyl)cyclopentadienyl]iron carbonyl dimer
96.8,–,–,–,[octyl(tetramethyl)cyclopentadienyl]iron carbonyl dimer
